Read-outs that look alike come from different tables or passages of the source.
Tests used:
[1] = system: MCF7-Y537S human breast cancer cell line xenograft; settings: experiment 1, compound (1) 20 mg/kg BID, alpelisib 25 mg/kg QD; for Tumor volume changes from baseline, Median: PO; for Median % of regressions on day 22 / ΔT/ΔC in % at day 22 / Regressions Complete / Regressions Partial: PO days 0 to 22; for Regressions Complete / Regressions Partial: animals/group; for Anti-tumor effect on tumor growth (in words) / Biological Interpretation: day 22
Protocol: In the present study, the anti-tumor efficacy of 6-(2,4-dichlorophenyl)-5-[4-[(3S)-1-(3-fluoropropyl)pyrrolidin-3-yl]oxyphenyl]-8,9-dihydro-7H-benzo[7]annulene-2-carboxylic acid (“compound (1)”), combined with alpha-specific phosphoinositide 3-kinase (PI3K) inhibitor alpelisib, was investigated after 22 day treatment against a subcutaneous MCF7-Y537S human breast cancer cell line xenograft in female nude mice.
The treated groups included compound (1) at 20 mg/kg alone, alpelisib at 25 mg/kg alone, and the combination of compound (1) and alpelisib at the same dose and regime.
Compound (1) was orally dosed twice a day (BID) and alpelisib was orally dosed once a day (QD) for 22 days. Anti-tumor efficacy was evaluated by tumor volume measurement.
Female BALB/c nude mice were obtained from Shanghai Sino-British SIPPR/BK Laboratory Animal Co., LTD (Shanghai, CHINA). Animals were allowed to acclimate for at least four days before the study enrollment. Mice were 6 to 8 weeks old and weighed between 18 and 24 grams at the beginning of the treatments. These animals were housed under conditions outlined in the guidelines approved by the Institutional Animal Care and Use Committee (IACUC) of WuXi AppTec following the guidance of the Association for Assessment and Accreditation of Laboratory Animal Care (AAALAC).
Parental MCF7 cells were obtained from the American Type Culture Collection (ATCC® HTB-22™). MCF7-Y537S (ESR1) cell line was MCF7 cells expressing the ER.Y537S variant that was generated by Sanofi Biology Discovery Group. Y537S mutation was introduced in ESR1 construct (GenBank NM_000125.3) by site directed mutagenesis (Toy W. et al., Cancer Discovery, 2017, 7, 277-287). The construct was transfected in MCF7 cells which were selected for their growth in absence of estradiol. MCF-Y537S is an ESR1 mutation that confers estrogen-independent activity to ERα (Estrogen Receptor alpha) and contributes to endocrine resistant disease (Robinson D. R. et al., Nat Genet., 2013, 45 (12), 1446-1451). The cells were grown in Eagle's Minimum Essential Medium (EMEM) supplemented with 10% fetal bovine serum (FBS), human Insulin, in 5% CO2 at 37° C. The cells were harvested in 0.25% Trypsin EDTA and washed by Phosphate Buffered Saline (PBS) and re-suspended in PBS with 75% Matrigel. The cells (20×10^6 cells/per mouse) were subcutaneously (SC) implanted into the right flank of female nude mice.
When the MCF7-Y537S tumors were established, the tumors were reserved as tumor stocks for fragment implantation. The tumors were serially propagated through fragment tissue transplantation subcutaneously. The fragment tumor tissues were subcutaneously implanted into the right flank of female nude mice. 28 mice were assigned in this experiment.
Alpelisib (commercially available, marketed under the tradename PIQRAY®) was formulated in 100% of HPMC (hydroxypropyl-methylcellulose)/TWEEN80 0.5/0.1% in water. Compound (1) was prepared in 5% Solutol HS15 (purchased from Sigma) at pH 3.0.
Dose volume for compound (1) and alpelisib for oral administration: 10 ml/kg by oral gavage.
Doses: compound (1) at 20 mg/kg and alpelisib at 25 mg/kg in the above volume.
The animals required for experiment (plus extra) were pooled and implanted with MCF7-Y537S tumor fragment tissues. […] Treatments of compound (1) and alpelisib were initiated on day 0. Compound (1) was orally administered at 20 mg/kg BID (8 hours apart) and alpelisib was orally administered at 25 mg/kg QD, for 22 days. Animal body weight was assessed daily.
The dosages are expressed in mg/kg and based on daily body weight per animal. Vehicle treated animals were used as controls. Mice were checked daily for adverse clinical reactions. Individual mice were weighed daily until the end of the experiment.

[2] = system: MCF7-Y537S human breast cancer cell line xenograft; assay type: in vivo; settings: experiment 2, compound (1) 10 mg/kg BID, alpelisib 25 mg/kg QD; for Tumor volume changes from baseline, Median: PO; for Median % of regressions on day 28 / ΔT/ΔC in % at day 28 / Regressions Complete / Regressions Partial: PO days 0 to 28; for Regressions Complete / Regressions Partial: animals/group; for Anti-tumor effect on tumor growth (in words) / Biological Interpretation: day 28

Q: How did the “Tumor volume changes from baseline, Median” value (“Tumor volume changes” below) ([1]; Day 4) turn out when `Cc1nc(NC(=O)N2CCC[C@H]2C(N)=O)sc1-c1ccnc(C(C)(C)C(F)(F)F)c1` [Alpelisib] was run?
A: The value was 68.0 mm^3.

Q: What about the “Tumor volume changes” value ([1]; Day 8) of the same compound?
A: The value was 102.0 mm^3.

Q: What about the “Tumor volume changes” value ([1]; Day 11) of the same compound?
A: Its value is 163.0 mm^3.

Q: And the “Tumor volume changes” value ([1]; Day 15)?
A: The value was 262.0 mm^3.

Q: And the “Tumor volume changes” value ([1]; Day 18)?
A: Its value is 315.0 mm^3.

Q: What about the “Tumor volume changes” value ([1]; Day 22) of the same compound?
A: Its value is 491.0 mm^3.

Q: What about the “Median % of regressions on day 22” value [1] of the same compound?
A: The value was 0%.

Q: What about the “ΔT/ΔC in % at day 22” value [1] of the same compound?
A: The value was 46%.

Q: And the “Regressions Complete” value [1]?
A: The value was 0/7.

Q: What about the “Regressions Partial” value [1] of the same compound?
A: The value was 0/7.

Q: What about the “Anti-tumor effect on tumor growth (in words)” value (“Anti-tumor effect” for short) [1] of the same compound?
A: The value was “did not induce statistically significant anti-tumor efficacy”.

Q: And the “Biological Interpretation” value [1]?
A: Its value is “Inactive”.

Q: What about the Body weight loss ([2]; 28 days) of the same compound?
A: The Body weight loss was “no significant body weight loss”.

Q: And the Tolerability ([2]; 28 days)?
A: The Tolerability was “well tolerated”.

Q: What about the “Tumor volume changes” value ([2]; Day 3) of the same compound?
A: The value was 7.0 mm^3.

Q: What about the “Tumor volume changes” value ([2]; Day 7) of the same compound?
A: The value was −9.0 mm^3.

Q: What about the “Tumor volume changes” value ([2]; Day 10) of the same compound?
A: The value was −17.0 mm^3.

Q: What about the “Tumor volume changes” value ([2]; Day 14) of the same compound?
A: Its value is 44.0 mm^3.

Q: And the “Tumor volume changes” value ([2]; Day 17)?
A: Its value is 121.5 mm^3.

Q: What about the “Tumor volume changes” value ([2]; Day 21) of the same compound?
A: Its value is 211.0 mm^3.

Q: What about the “Tumor volume changes” value ([2]; Day 24) of the same compound?
A: Its value is 245.5 mm^3.

Q: What about the “Tumor volume changes” value ([2]; Day 28) of the same compound?
A: Its value is 299.5 mm^3.

Q: What about the “Median % of regressions on day 28” value [2] of the same compound?
A: Its value is 0%.

Q: And the “ΔT/ΔC in % at day 28” value [2]?
A: The value was 66%.

Q: What about the “Regressions Complete” value [2] of the same compound?
A: The value was 0/8.

Q: What about the “Regressions Partial” value [2] of the same compound?
A: Its value is 0/8.

Q: What about the “Anti-tumor effect” value [2] of the same compound?
A: Its value is “statistically significant anti-tumor efficacy”.

Q: What about the “Biological Interpretation” value [2] of the same compound?
A: Its value is “inactive”.

Q: `O=C(O)c1ccc2c(c1)CCCC(c1ccc(Cl)cc1Cl)=C2c1ccc(O[C@H]2CCN(CCCF)C2)cc1` [Compound (1), 6-(2,4-dichlorophenyl)-5-[4-[(3S)-1-(3-fluoropropyl)pyrrolidin-3-yl]oxyphenyl]-8,9-dihydro-7H-benzo[7]annulene-2-carboxylic acid] was tested. Which “Tumor volume changes” value ([1]; Day 4) did it give?
A: Its value is 43.0 mm^3.

Q: What about the “Tumor volume changes” value ([1]; Day 8) of the same compound?
A: The value was 121.0 mm^3.

Q: And the “Tumor volume changes” value ([1]; Day 11)?
A: The value was 214.0 mm^3.

Q: And the “Tumor volume changes” value ([1]; Day 15)?
A: Its value is 360.0 mm^3.

Q: And the “Tumor volume changes” value ([1]; Day 18)?
A: The value was 392.0 mm^3.

Q: What about the “Tumor volume changes” value ([1]; Day 22) of the same compound?
A: Its value is 501.0 mm^3.

Q: What about the “Median % of regressions on day 22” value [1] of the same compound?
A: Its value is 0%.

Q: What about the “ΔT/ΔC in % at day 22” value [1] of the same compound?
A: The value was 47%.

Q: What about the “Regressions Complete” value [1] of the same compound?
A: Its value is 0/7.

Q: And the “Regressions Partial” value [1]?
A: Its value is 0/7.

Q: What about the “Unscheduled death (Day of death)” value ([1]; PO for 22 days, deaths/animals) of the same compound?
A: Its value is 0/7.

Q: And the “Anti-tumor effect” value [1]?
A: The value was “no statistically significant anti-tumor effect”.

Q: And the “Biological Interpretation” value [1]?
A: The value was “Inactive”.

Q: What about the “Tumor volume changes” value ([2]; Day 3) of the same compound?
A: Its value is 9.0 mm^3.

Q: And the “Tumor volume changes” value ([2]; Day 7)?
A: Its value is 36.0 mm^3.

Q: What about the “Tumor volume changes” value ([2]; Day 10) of the same compound?
A: Its value is 48.0 mm^3.

Q: What about the “Tumor volume changes” value ([2]; Day 14) of the same compound?
A: Its value is 62.5 mm^3.

Q: What about the “Tumor volume changes” value ([2]; Day 17) of the same compound?
A: Its value is 92.0 mm^3.

Q: What about the “Tumor volume changes” value ([2]; Day 21) of the same compound?
A: Its value is 167.5 mm^3.

Q: And the “Tumor volume changes” value ([2]; Day 24)?
A: Its value is 189.5 mm^3.

Q: What about the “Tumor volume changes” value ([2]; Day 28) of the same compound?
A: The value was 166.5 mm^3.

Q: What about the “Median % of regressions on day 28” value [2] of the same compound?
A: The value was 0%.

Q: And the “ΔT/ΔC in % at day 28” value [2]?
A: Its value is 37%.

Q: What about the “Regressions Complete” value [2] of the same compound?
A: The value was 0/8.

Q: What about the “Regressions Partial” value [2] of the same compound?
A: The value was 0/8.

Q: And the “Unscheduled death (Day of death)” value ([2]; PO for 28 days, deaths/animals)?
A: The value was 0/8.

Q: And the “Anti-tumor effect” value [2]?
A: The value was “statistically significant anti-tumor effect”.

Q: What about the “Biological Interpretation” value [2] of the same compound?
A: Its value is “active”.

Reference: patent US12427142B2, “Combination comprising alpelisib and 6-(2,4-dichlorophenyl)-5-[4-[(3S)-1-(3-fluoropropyl)pyrrolidin-3-yl[oxyphenyl]-8,9-dihydro-7H-benzo[7]annulene-2-carboxylic acid” (Sanofi, priority 2020, dated 2025)
